Data taken from US11840489B2, “Symbiosis-promoting agent and method for promoting symbiosis of arbuscular mycorrhizal fungi” (TOYOTA JIDOSHA KABUSHIKI KAISHA, priority 2020, dated 2023).

Legend:
[1] = system: arbuscular mycorrhizal fungi (Rhizophagus irregularis DAOM197198); assay: Hyphal elongation of arbuscular mycorrhizal fungi in modified M medium, 4 weeks (Example 1); format: cell-based; details: 10 microM or 100 microM in medium, 30 degrees C., vs control without addition, p less than 0.05, Dunnett's test, n 16-19, FIG. 1
[2] = system: arbuscular mycorrhizal fungi (Rhizophagus irregularis DAOM197198); assay: Infection rate of arbuscular mycorrhizal fungi in roots of Lotus japonicus grown in supplemented soil (Example 2); format: in vivo; details: Lotus japonicus, 4,000 spores, 4 weeks, FIG. 2
Method: Specifically, plants of Leguminosae (Lotus japonicus) were infected with arbuscular mycorrhizal fungi (Rhizophagus irregularis DAOM197198) in soil supplemented with GSSG, and the infection rate (%) of the mycorrhizal fungi invaded inside the roots was determined.
At the outset, the medium (one-tenth of the amount, Hoagland No. 2 basal salt mixture (SIGMA), 0.1 mM KNO3) was added to fertilizer-free soil. Also, control soil supplemented with spores of arbuscular mycorrhizal fungi (4,000 or 6,000 spores) and soil supplemented with spores of arbuscular mycorrhizal fungi (4,000 spores) and GSSG (10 or 100 microM) were prepared. Subsequently, seeds of Lotus japonicus (3 days after seeding) that had germinated in agar medium were transplanted therein. The plants were allowed to grow at 23 degrees C. with 16-hour light and 8-hour dark cycles for 4 weeks. Thereafter, Lotus japonicus was dug out, the arbuscular mycorrhizal fungi inside the root were stained with ink, and the infection rate of the mycorrhizal fungi (the amount of hyphae per root length (%)) was determined with observation under a microscope.

[3] = system: arbuscular mycorrhizal fungi (Rhizophagus irregularis DAOM197198); assay: Infection rate of arbuscular mycorrhizal fungi in roots of chives (Allium schoenoprasum) grown in supplemented soil (Example 3); format: in vivo; details: chives, 4,000 spores, 10 or 100 microM in soil, 4 weeks; vs control; Dunnett's test, n=8; FIG. 3
Method: (§1) Specifically, monocotyledonous plants of Allium (chives; Allium schoenoprasum) were infected with arbuscular mycorrhizal fungi (Rhizophagus irregularis DAOM197198), and the infection rate (%) of the mycorrhizal fungi that had invaded inside the roots was determined.
(§2) Plants were infected with arbuscular mycorrhizal fungi in the same manner as in Example 2. That is, the medium (one-tenth of the amount, Hoagland No. 2 basal salt mixture (SIGMA), 0.1 mM KNO3) was added to fertilizer-free soil. As control samples, sterilized chive seeds were directly seeded in soil supplemented with spores of arbuscular mycorrhizal fungi (4,000 spores) and in soil supplemented with the spores and GSSG (10 or 100 microM). The plants were allowed to grow at 23 degrees C. with 16-hour light and 8-hour dark cycles for 4 weeks. Thereafter, chives were dug out, the arbuscular mycorrhizal fungi inside the root were stained with ink, and the infection rate of the mycorrhizal fungi (the amount of hyphae per root length (%)) was determined with observation under a microscope.

[4] = system: root nodule bacteria (Mesorhizobium loti); assay: Root nodule bacterial infection of Lotus japonicus: root nodules and infection hyphae (Comparative Example 1); format: in vivo; details: 10 or 100 microM, FIG. 5
Method: In this comparative example, root nodule bacteria from Lotus japonicus plants (Mesorhizobium loti, a transformant comprising a fluorescent protein (DsRED) introduced thereinto) were used. Vermiculite was supplemented with B&D medium (Broughton and Dilworth, 1971), KNO3 (final concentration: 0.1 mM), root nodule bacteria, and oxidized glutathione at 0, 10, or 100 microM to prepare media. The resulting media (50 ml) were added to 300 ml of fertilizer-free soil (vermiculite) in a pot, and young plants of Lotus japonicus 3 days after seeding were planted therein. The infection hyphae that serve as the routes of infection with root nodule bacteria formed in the root hair cells of Lotus japonicus and the root nodules that are symbiotic organs formed in the roots of Lotus japonicus were examined 1 week and 2 weeks after the growth.

[5] = system: arbuscular mycorrhizal fungi; assay: Infection rate of arbuscular mycorrhizal fungi in chives, soil with cystathionine, GSH or Phoron (Comparative Example 2); format: in vivo, Rhizophagus irregularis DAOM197198; details: 500 spores, 1 month, FIG. 6; for infection rate (amount of hyphae per root length): 0.1 or 1 mM in soil, vs control with 500 spores
Method: as §1, §2
In the same manner as in Example 3, the medium (one-tenth of the amount, Hoagland No. 2 basal salt mixture (SIGMA), 0.1 mM KNO3) was added to fertilizer-free soil. As control samples, sterilized chive seeds were directly seeded in soil supplemented with spores of arbuscular mycorrhizal fungi (500 spores and 1,000 spores) and in soil supplemented with the 500 spores, cystathionine (0.1 or 1 mM), GSH (0.1 or 1 mM), and Phoron (0.1 or 1 mM). The plants were allowed to grow at 23 degrees C. with 16-hour light and 8-hour dark cycles for 1 month. Thereafter, chives were dug out, the arbuscular mycorrhizal fungi inside the root were stained with ink, and the infection potential of the mycorrhizal fungi (the amount of hyphae per root length (%)) was determined with observation under a microscope.

[6] = system: arbuscular mycorrhizal fungi (Rhizophagus irregularis DAOM197198); details: 30 degrees C., 1 week, FIG. 7
Method: The modified M medium (0.3% gerlite, Becard and Fortin, 1988 New phytologist, 108, 211-218) was supplemented with oxidized glutathione (10 microM or 100 microM), spores of arbuscular mycorrhizal fungi (Rhizophagus irregularis DAOM197198) were inoculated, and culture was conducted at 30 degrees C. for 4 weeks. For comparison, arbuscular mycorrhizal fungi were cultured in the same manner, except that oxidized glutathione was not added. The number of hyphae elongated outside of the circle (a radius of 7.5 mm) centered on the inoculated portion of the medium was counted, and the extent of elongation was determined based on the number of spores.
In the same manner as in Example 1, reduced glutathione (10 mM) was added to the modified M medium (0.3% gerlite), spores of arbuscular mycorrhizal fungi (Rhizophagus irregularis DAOM197198) were inoculated therein, and culture was conducted at 30 degrees C. for 1 week. For comparison, arbuscular mycorrhizal fungi were cultured in the same manner, except that reduced glutathione was not added.

[7] = system: arbuscular mycorrhizal fungi; assay: Infection rate of arbuscular mycorrhizal fungi in chives, soil supplemented with cystathionine (Example 4); format: in vivo; details: 1 mM in soil, 4 weeks, vs cystathionine-free control, FIG. 4
Method: Chives were used in this example. The medium (one-tenth of the amount, Hoagland No. 2 basal salt mixture (SIGMA), 0.1 mM KNO3) was added to fertilizer-free soil. As control samples, sterilized chive seeds were directly seeded in soil supplemented with spores of arbuscular mycorrhizal fungi (500 or 1,000 spores) and in soil supplemented with the spores and cystathionine (0.1 or 1 mM). The plants were allowed to grow at 23 degrees C. with 16-hour light and 8-hour dark cycles for 4 weeks. Thereafter, chives were dug out, the arbuscular mycorrhizal fungi inside the root were stained with ink, and the infection rate of the mycorrhizal fungi (the amount of hyphae per root length (%)) was determined with observation under a microscope.

Molecule: oxidized glutathione
- hyphal elongation (number of hyphae elongated outside circle of radius 7.5 mm, per number of spores) [1]: significant effects of promoting hyphal elongation
- infection rate compared with control inoculated with 1.5 times greater amount of spores (6,000 spores) ([2]; 10 microM): equivalent
- infection rate of the mycorrhizal fungi (amount of hyphae per root length) ([2]; 10 or 100 microM in soil, vs GSSG-free control (4,000 spores), Dunnett's test, n=8): significantly enhanced
- infection rate compared with control inoculated with 1.5 times greater amount of spores (6,000 spores) ([2]; 100 microM): enhance
- infection rate of the mycorrhizal fungi (amount of hyphae per root length) [3]: significantly enhanced
- formation of infection hyphae ([4]; 1 week after the growth): significant inhibitory effects
- formation of root nodules ([4]; 1 week after the growth): significant inhibitory effects
- inhibitory effects on formation of infection hyphae ([4]; 2 weeks after the growth): not observed
- inhibitory effects on formation of root nodules ([4]; 2 weeks after the growth): not observed

Molecule: CC(C)=CC(=O)C=C(C)C [Phoron, reference compound]
- infection rate (amount of hyphae per root length) [5]: inhibited

Molecule: N[C@@H](CCC(=O)N[C@@H](CS)C(=O)NCC(=O)O)C(=O)O [reduced glutathione, N—(N-gamma-L-glutamyl-L-cysteinyl)glycine]
- infection rate (amount of hyphae per root length) [5]: inhibited
- hyphal elongation of arbuscular mycorrhizal fungi at high concentration ([6]; 10 mM): no hyphal elongation was observed
- spore survival ([6]; 10 mM): died
- hyphal elongation of arbuscular mycorrhizal fungi ([6]; medium supplemented with reduced glutathione, vs no addition): deteriorated hyphal elongation

Molecule: NC(CCSCC(N)C(=O)O)C(=O)O (centres unmarked) [cystathionine, 2-amino-4-(2-amino-2-carboxy-ethyl)thio-butanoic acid]
- infection rate of the mycorrhizal fungi (amount of hyphae per root length) [7]: significantly enhanced
- infection rate compared with the sample supplemented with 1,000 spores ([5]; 1 mM): equivalent
- infection rate (amount of hyphae per root length) [5]: enhanced
